Patent publication US20240238361A1, “METHODS OF TREATING FIBROSIS AND HYPOXIA-ASSOCIATED DAMAGE TO PERIPHERAL NERVES” (Temple Therapeutics BV, priority 2021, published 2024)
Entries after “also recorded” stand apart in the source; their conditions may differ. Where a SMILES comes first, the peptide text is derived from it.

Assays:
[1] = room temperature; cited from earlier work
[2] = test system: hypoxic primary rat fibroblasts; experiment: Alamar Blue viability / proliferation assay under hypoxia; format: cell-based; conditions: for cell proliferation vs untreated controls: various concentrations
Procedure: In order to mimic the hypoxic micro-environment, primary rat fibroblasts were exposed to hypoxia. Cells were exposed to 2 separate conditions—continuous and episodic hypoxia. For continuous hypoxia, cells were incubated in a hypoxic chamber (2% 02) for 48 h and treated with or without L-alanyl-L-glutamine and no restoration to normoxia as shown in FIG. 1C. Cells were collected and processed for experiments subsequently. For episodic hypoxia, cells were incubated in a hypoxic chamber (2% 02) for 2 h followed by restoration to normoxia for 48 h at which time cells were treated with or without L-alanyl-L-glutamine, as shown by FIG. 1C. Cells were collected after 48 h and processed for experiments subsequently. Proliferation of primary fibroblasts were determined by alamar blue assay (Invitrogen). Briefly, cells were plated in a 96-well plate treated with or without L-alanyl-L-glutamine under aforementioned hypoxic conditions for 48 h. The interaction of alamar blue with the cells was analyzed for 4 h by measuring fluorescence readings at 540 nm and 585 nm respectively. Proliferation was also detected using flow cytometry based EdU assay using EdU-Click 488 (baseclick).

[3] = test system: hypoxic primary rat fibroblasts; experiment: Phosphoproteomics (LC-MS/MS) and pathway analysis under chronic hypoxia; format: cell-based; conditions: vs untreated chronic hypoxic samples
Procedure: (§1) In order to mimic the hypoxic micro-environment, primary rat fibroblasts were exposed to hypoxia. Cells were exposed to 2 separate conditions—continuous and episodic hypoxia. For continuous hypoxia, cells were incubated in a hypoxic chamber (2% 02) for 48 h and treated with or without L-alanyl-L-glutamine and no restoration to normoxia as shown in FIG. 1C. Cells were collected and processed for experiments subsequently.
Following fibroblast isolation from sciatic nerves of rats, (8E10 primary fibroblasts) were lysed in 80 ul of 8M Urea, 0.1M ammonium bicarbonate, phosphatase inhibitors (Sigma P5726&P0044) by sonication (Bioruptor, 10 cycles, 30 seconds on/off, Diagenode, Belgium) and proteins were digested as described previously (PMID:27345528). Shortly, proteins were reduced with 5 mM TCEP for 60 min at 37° C. and alkylated with 10 mM chloroacetamide for 30 min at 37° C. After diluting samples with 100 mM ammonium bicarbonate buffer to a final urea concentration of 1.6M, proteins were digested by incubation with sequencing-grade modified trypsin (1/50, w/w; Promega, Madison, Wisconsin) for 12 h at 37° C. After acidification using 5% TFA, peptides were desalted using C18 reverse-phase spin columns (Macrospin, Harvard Apparatus) according to the manufacturer's instructions, dried under vacuum and stored at −20° C. until further use. […]

[4] = test system: hypoxic primary rat fibroblasts; experiment: Western blotting of whole cell lysates for HIF1-α signaling and pro-fibrotic proteins; format: cell-based
Procedure: In order to mimic the hypoxic micro-environment, primary rat fibroblasts were exposed to hypoxia. Cells were exposed to 2 separate conditions—continuous and episodic hypoxia. For continuous hypoxia, cells were incubated in a hypoxic chamber (2% 02) for 48 h and treated with or without L-alanyl-L-glutamine and no restoration to normoxia as shown in FIG. 1C. Cells were collected and processed for experiments subsequently. For episodic hypoxia, cells were incubated in a hypoxic chamber (2% 02) for 2 h followed by restoration to normoxia for 48 h at which time cells were treated with or without L-alanyl-L-glutamine, as shown by FIG. 1C. Cells were collected after 48 h and processed for experiments subsequently. Protein samples were prepared by resuspending cells growing in 6-well plates in RIPA lysis and extraction buffer (Thermo) containing protease and phosphatase inhibitors (Roche). Protein concentrations were quantified using protein assay dye reagent (Bio-Rad). Samples were mixed with 4× LDS Sample buffer (Thermo) and denatured by boiling at 95° C. for 6 minutes. Following protein concentration estimations, equal protein samples containing 25 μg total protein were loaded and resolved in 4-15% Mini protean TGX gels (Bio-Rad). Fractionated proteins were transferred to 0.2 μm nitrocellulose membranes using Trans-Blot® Turbo™ Transfer System (Bio-Rad). Membranes were blocked with 5% Non-Fat dry milk and incubated overnight with primary antibodies. The following primary antibodies along with their respective concentrations were used during overnight incubation. Anti-collagen I (1:500; ab34710) and anti-collagen IV (1:500; ab6586) were purchased from Abcam. Anti-heat shock protein 47 (HSP-47) (1:400; sc-13150) and anti-fibronectin (1:500; sc-8422) were ordered from Santa Cruz Biotechnology. Other antibodies including anti-SMAD 2/3 (1:500; 85865S), anti-GAPDH (1:5000; 97166S) and anti-HIF-1α (1:750; 14179S) were from Cell Signaling Technology. Horseradish peroxidase-conjugated secondary antibodies at a concentration of 1:5000 were used for immunoreactivity and detection of protein bands were does using Pierce™ ECL Plus Western Blotting Substrate (Thermo) and on the ChemiDoc Imaging Systems (Bio-Rad).

[5] = test system: hypoxic primary rat fibroblasts; experiment: Immunofluorescence of HIF1-α signaling and pro-fibrotic proteins; format: cell-based
Procedure: as §1
For episodic hypoxia, cells were incubated in a hypoxic chamber (2% 02) for 2 h followed by restoration to normoxia for 48 h at which time cells were treated with or without L-alanyl-L-glutamine, as shown by FIG. 1C. Cells were collected after 48 h and processed for experiments subsequently.
For immunofluorescence microscopy, cells were grown on 4-well chamber slides (IBIDI) under appropriate hypoxic conditions with or without L-alanyl-L-glutamine treatment. Cells were washed with ice-cold PBS followed by fixation with 4% paraformaldehyde. Fixed cells were permeabilized with 0.5% Triton X-100 and incubated with blocking reagent (1% BSA in PBS) for 30 minutes, prior to overnight incubation with appropriate primary antibodies. After wash steps, cultures were labeled and incubated with secondary antibodies and 4′-6-didiamino-2-phenylindole, dihydrochloride (DAPI, Sigma) were used to stain the nuclei.
Fluorescence microscopy image analysis was performed using NIKON Ti2 inverted microscope equipped with Photometrics Prime 95B camera for fluorescence imaging. All images were digitally processed, all quantifications and further arrangement for presentation was done using NIS-Elements Advanced Research analysis software. For quantification analysis, pictures from random fields in independent wells were taken at 10× and 40× magnification objectives and the total protein expression for each marker was determined in reference to the total number of cells based on DAPI quantification.
For immunofluorescence, the primary antibodies along with their respective concentrations are listed below. Anti-collagen I (1:500; ab34710), anti-collagen IV (1:500; ab6586) and anti-α-SMA (1:500; ab124964) were purchased from Abcam. Anti-HSP-47 (1:250; sc-13150), anti-fibronectin (1:250; sc-8422), and anti-HIF-1α (1:500; sc-13515) were ordered from Santa Cruz Biotechnology. Anti-SMAD 2/3 (1:500; 85865S) was purchased from Cell Signaling Technology. In addition to this, the following secondary antibodies: Goat anti-mouse Alexa Fluor (AF) 488 (A11029), goat anti-mouse AF546 (A11030), goat anti-rabbit AF488 (A11034) and goat anti-rabbit AF546 (A11010) from Life Technologies. DAPI (D9564) from Sigma was used at a concentration of 1:1000.

[6] = continuous hypoxia 48 h, 1 mM, 10 mM and 100 mM, dose-dependent
[7] = continuous hypoxia 48 h, various concentrations
[8] = episodic hypoxia 2 h, then treatment 48 h

NC(=O)CC[C@H](N)C(=O)O [L-glutamine]
water solubility [1]: about 40 g/L

C[C@H](N)C(=O)N[C@@H](CCC(N)=O)C(=O)O [L-alanyl-L-glutamine] (H-Ala-Gln-OH)
viability and cell proliferation ([2]; Alamar Blue, 48 h, hypoxic, 1 mM, 10 mM and 100 mM): does not affect the viability and cell proliferation | cell proliferation vs untreated controls ([2]; continuous (48 h) hypoxia): no change in cell proliferation | cell proliferation vs untreated controls ([2]; episodic (2 h) hypoxia): no change in cell proliferation | pro-fibrotic factors Fndel, Fndc3b, Col1a1, Akt1s1 and Pxn (phosphoproteome) [3]: significantly downregulated | HSP47 expression (western blot) ([4]; continuous hypoxia 48 h): reduces expression of HSP47 but we did not observe a significant downregulation | HIF1-α expression (western blot) ([4]; continuous hypoxia 48 h, 1 mM, 10 mM and 100 mM): significantly down regulated | Collagen-I expression (western blot) [4, 6]: significantly reduced | Collagen-IV expression (western blot) [4, 6]: significantly reduced | Fibronectin expression (western blot) [4, 6]: significantly reduced | SMAD 2/3 expression (western blot) ([4]; continuous hypoxia 48 h, 100 mM only): significantly downregulated | COL-IV expression (western blot) ([4]; episodic hypoxia, 1 mM): significant downregulation | HIF1-α signaling factors and pro-fibrosis mechanistic targets (western blot) ([4]; episodic hypoxia, across the various concentrations): not any significant downregulation | Collagen-I expression (immunofluorescence) [5, 7]: significantly reduced in a non-dose dependent manner | Collagen-IV expression (immunofluorescence) [5, 7]: dose-dependent downregulation | Fibronectin expression (immunofluorescence) [5, 7]: significantly reduced in a non-dose dependent manner | HIF1-α expression (immunofluorescence) [5, 7]: significant reduction; also recorded: dose-dependent downregulation | HSP47 expression (immunofluorescence) [5, 7]: dose-dependent downregulation | SMAD 2/3 expression (immunofluorescence) [5, 7]: significant reduction; also recorded: dose-dependent downregulation | Collagen-I expression (immunofluorescence) [5, 8]: significantly reduced at 1 mM L-alanyl-L-glutamine, but remained constant thereafter | Collagen-IV expression (immunofluorescence) [5, 8]: effectively reduces expression | Fibronectin expression (immunofluorescence) [5, 8]: effectively reduces expression | HIF1-α expression (immunofluorescence) [5, 8]: significant downregulation | HSP47 expression (immunofluorescence) [5, 8]: effectively reduces expression | SMAD 2/3 expression (immunofluorescence) [5, 8]: significant downregulation
